Data set [1] addresses T1, human GHSR1a receptor (Homo sapiens, UniProt Q92847).
T1 construct: expressed in transfected cells; host or cells: HEK293
Put plainly: Antagonist FLIPR assay in HEK293 cells. It counts as cell-based. The note with it: HEK293 cells expressing human GHSR1a, in duplicate, HM04 tested as fumarate salt. The method, then: The compounds were diluted with 100% DMSO to make 30 mM stock. On the test day, serial dilutions were prepared starting from the stock solution. For the FLIPR assay: 1) 8 μl of DMSO was added to 2 μl of compound stock solution (30 mM) to produce 10 μl of 6 mM solution; half-fold serial dilutions of the 6 mM solution were produced to generate ten doses; 2) test solutions were obtained by diluting the stock solutions 1/40 in assay buffer (DMSO concentration 2.5%). […]
(§1) For the agonist and antagonist activity study, HEK293 cells stably expressing human GHSR1a receptor were used in a (FLIPR) assay. […] Fluorescence signal was detected with FLIPR at room temperature according to standard settings for 10 minutes before cells were exposed to 10 μl of 5× working concentrations of agonists (compound added by FLIPR). The fluorescence signal was detected in the subsequent 3 minutes (antagonist mode).
Data were reported as relative light units (RLUs) and analyzed using GraphPad Software Inc. version 6. The half maximal inhibitory concentration (IC50) measured for HM04 and R011 were calculated by non-linear regression analysis.

In data set [2] the target is T1, human GHSR1a receptor. As to the kind of experiment: Agonist FLIPR assay in HEK293 cells. It is filed as cell-based. The note with it: FLIPR agonist mode, concentrations up to 10 μM. The method, then: (§2) The compounds were diluted with 100% DMSO to make 30 mM stock. On the test day, serial dilutions were prepared starting from the stock solution. For the FLIPR assay: 1) 8 μl of DMSO was added to 2 μl of compound stock solution (30 mM) to produce 10 μl of 6 mM solution; half-fold serial dilutions of the 6 mM solution were produced to generate ten doses; 2) test solutions were obtained by diluting the stock solutions 1/40 in assay buffer (DMSO concentration 2.5%). For the IP-1 assay: 1) 29 μl of DMSO was added to 1 μl of compound stock solution (30 mM) to produce 30 μl of 1 mM solution; half-fold serial dilutions of the 1 mM solution were produced to generate 10 doses; 2) test solutions were obtained by diluting the stock solutions 1/100 in assay buffer (DMSO final concentration 1%).
as §1

The target in data set [3] is T1, human GHSR1a receptor. As to the kind of experiment: Inositol 1 phosphate (IP-1) inverse agonist assay. It is filed as cell-based. The note with it: IP-1 assay. How it is done:
as §2
For the inverse agonist activity study, the same procedure described above was followed up to the day of the test. On the test day, the medium was removed by centrifuging at 700 rpm for 30 seconds and 20 μl/well of assay buffer containing the HM04 or R011 was added. The assay plates were incubated at 37° C. in the dark for 1 hour. IP1-d2 (5 μl) and AB-Cryp (5 μl) were sequentially added to all wells using multidrop Combi. The plate was incubated at room temperature for 1 hour and read on EnVision at 620 nm and 665 nm.

Data set [4] relates to Snord116+/− (Het) mice and wild-type (WT) littermates. As to the kind of experiment: Food intake after acute administration in Prader-Willi mouse model. It counts as in vivo. Particulars: for cumulative food intake: fasted 16 hours. An excerpt: The effect of HM04 fumarate salt on food intake behavior and glucose tolerance was investigated in the Snord116+/−(Het) mouse genetic model of Prader-Willi syndrome (Het mouse) compared to wild-type (WT) littermates. Since D2R agonists suppress food intake, the FDA approved D2R agonist cabergoline was used as an experimental control. Phenotypic characteristics of this PWS mouse model include hyperphagia, postnatal growth retardation, high ghrelin, and low growth hormone. Ding F., et al. SnoRNA Snord116 (Pwcr1/MBII-85) deletion causes growth deficiency and hyperphagia in mice. PloS one. 2008; 3(3):e1709. These PWS mice eat more frequently than WT littermates, particularly during the light cycle and are more motivated to work for food (more level presses) (data not shown).
Acute administration: Mice (3-, 7-, and 12-month-old) were fasted for 16 hours and then administered a single intraperitoneal injection of vehicle or vehicle containing HM04, cabergoline, or HM04 and cabergoline according to Table 8, below.
HM04 was dissolved in water for injection and cabergoline was dissolved in DMSO to provide a 5% DMSO/water solution for injection. Mice were then given free access to food, and cumulative food intake was measured at 1, 2, 4, 8, 12, and 24 hours post-dosing. […] Data was analyzed for significance using 2-way ANOVA, Bonferroni post hoc test (Graphpad Prism, Prism 5.0, San Diego, Calif.).

Data set [5] can be described thus: Rat pharmacokinetic study, HM04 free base vs HM04 fumarate salt (Example 9). The note with it: 3 mg/kg oral, mean ± S.D., n=3. It is filed as in vivo, male Sprague Dawley rats. The method, then: The pharmacokinetics of HM04 in plasma of male Sprague Dawley rats dosed with a single oral administration of 3 mg/kg HM04 (based on the weight of the free base) formulated in a solution of 10% DMAC, 6% Solutol, and 84% PBS using either the HM04 free base or HM04 fumarate salt were compared. Blood samples were withdrawn at set time intervals and plasma concentration of HM04 was measured by LC-MS/MS. A comparison of the plasma concentration of HM04 (ng/mL) over time in rats dosed orally with HM04 free base and HM04 fumarate salt is provided in FIG. 17.

Structures are written as SMILES.

T1 sequence (Q92847 whole entry): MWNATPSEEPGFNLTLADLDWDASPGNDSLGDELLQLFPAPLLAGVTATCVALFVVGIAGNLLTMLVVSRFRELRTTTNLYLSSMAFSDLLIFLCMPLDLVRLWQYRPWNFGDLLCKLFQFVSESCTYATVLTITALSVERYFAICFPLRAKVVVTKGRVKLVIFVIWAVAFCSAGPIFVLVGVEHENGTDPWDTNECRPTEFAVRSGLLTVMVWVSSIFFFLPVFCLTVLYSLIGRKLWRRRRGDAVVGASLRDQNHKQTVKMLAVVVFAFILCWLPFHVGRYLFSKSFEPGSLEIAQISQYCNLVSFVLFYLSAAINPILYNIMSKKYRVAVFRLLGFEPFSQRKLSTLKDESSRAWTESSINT

For the compound `CN1CCC(N(C)C(=O)N[C@H](c2ccc(-c3cnccn3)c(Cl)c2Cl)C(F)(F)F)CC1` [HM04, (R)-3-(1-(2,3-dichloro-4-(pyrazin-2-yl)phenyl)-2,2,2-trifluoroethyl)-1-methyl-1-(1-methylpiperidin-4-yl)urea], the IC50 at human GHSR1a receptor [1] amounted to 7.31 nM. The agonist activity entry at human GHSR1a receptor [2] is “No agonist activity was observed”. The inverse agonist activity entry on human GHSR1a receptor [3] was “did not show a clear significant inverse agonist activity”. The cumulative food intake entry in data set [4] (3-month-old Het mice, HM04 10 mg/kg single i.p.) is “significantly suppressed food intake at 12 and 24 hours post-dosing”; in data set [4] (3-month-old WT mice, HM04 10 mg/kg single i.p.) it was “failed to inhibit food intake”; in data set [4] (7-month-old Het mice, HM04 10 mg/kg single i.p.) it was “did not inhibit food intake”; in data set [4] (7-month-old WT mice, HM04 10 mg/kg single i.p.), “did not inhibit food intake”. Besides, the food intake result in data set [4] (7-month-old Het mice, HM04 30 mg/kg single i.p.) was “inhibited food intake for up to 8 hours”; in data set [4] (7-month-old WT mice, HM04 30 mg/kg single i.p.), “no apparent effect on food intake”; in data set [4] (12-month-old Het mice, HM04 10 mg/kg single i.p., 1 hour after dosing), “suppressed food intake”; in data set [4] (12-month-old Het mice, HM04 10 mg/kg single i.p., after 1 hour (up to 24 hours)) it was “that level of inhibition was not maintained”; in data set [4] (12-month-old WT mice, HM04 10 mg/kg i.p.), “did not reduce food intake”.
On to `CN1CCC(N(C)C(=O)N[C@H](c2ccc(-c3cnccn3)c(Cl)c2Cl)C(F)(F)F)CC1.O=C(O)/C=C/C(=O)O` [HM04 fumarate salt, (R)-3-(1-(2,3-dichloro-4-(pyrazin-2-yl)phenyl)-2,2,2-trifluoroethyl)-1-methyl-1-(1-methylpiperidin-4-yl)urea fumarate salt], for which the HM04 plasma concentration is 325.9 ± 187.8 ng/mL in data set [5] (0.50 hours), 201.0 ± 38.7 ng/mL in data set [5] (1 hour), 173.9 ± 12.2 ng/mL in data set [5] (2 hours) and 42.3 ± 2.5 ng/mL in data set [5] (8 hours). The area under the curve AUC(0-t) in data set [5] (male, Sprague Dawley, plasma) was determined as 970 ± 147 ng·h/mL. Further, the Tmax in data set [5] (male, Sprague Dawley, plasma) is 49.8 ± 17.4 min.

The values above are taken from patent publication US11299472B2, “Fumarate salt of (R)-3-(1-(2,3-dichloro-4-(pyrazin-2-yl)phenyl)-2,2,2- trifluoroethyl)-1-methyl-1-(1-methylpiperidin-4-yl) urea, methods of preparation, and uses thereof” (Helsinn Healthcare SA, priority 2017, dated 2022).
